Earlier results, collected in patent US20230091009A1, “METHOD FOR PROMOTING GROWTH OF GAS-FERMENTED MICROORGANISMS” (HARBIN INSTITUTE OF TECHNOLOGY, SHENZHEN, priority 2021, published 2023).

Conditions: ambient conditions, even in a supersaturated state

In the case of `[HH]` [hydrogen], the solubility in water is listed as “about 0.79 mmol/l”.
